Where no end group is shown, it is not given here.
Columns and labels:
[1] = system: L. monocytogenes KCTC 3710; format: cell-based, Listeria monocytogenes; conditions: microdilution, BHI, 18 to 24 h, 37°C, three independent experiments
Protocol: (§1) Bacterial cells were cultured at 37°C in the appropriate culture media with shaking (180 rpm). Luria-Bertani broth (LB) (244620; BD Difco) was used for E. coli ATCC 25922, ASEC strains, and B. subtilis KCTC 2217. Nutrient broth (NB) (234000; BD Difco) was used for P. aeruginosa ATCC 27853, S. Typhimurium KCTC 1926, and A. baumannii KCTC 2508. Tryptic soy broth (TSB) (211825; BD Difco) was used for S. aureus ATCC 25923. Finally, brain heart infusion (BHI) (237500; BD Difco) was used for L. monocytogenes KCTC 3710. The antimicrobial activity of each peptide was determined using microdilution assays. To this end, 2-fold serial dilution series of each peptide (from 1 to 64 μM) were added to duplicate media with 10 mM sodium phosphate buffer (pH 7.4). Fifty microliters of the peptide and antibiotic solution was added to each well of a 96-well plate (32096, surface nontreatment; SPL Life Sciences). Then, 50 μL of 2 × 10^5 CFU mL^−1 of bacteria was added to each well, and the samples were incubated for 18 to 24 h without shaking at 37°C.

[2] = system: E. coli ATCC 25922 biofilm; conditions: 5 × 10^5 CFU mL^−1, 0.2% glucose, 24 h, 37°C, crystal violet A595, three independent experiments
Protocol: Crystal violet staining was performed to determine the degree of biofilm formation by the E. coli 25922, S. aureus 25923, and ASEC strains. E. coli 25922 and S. aureus 25923 were cultured overnight in LB and TSB media with aeration at 180 rpm, respectively. Bacterial suspensions with 0.2% glucose (5 × 10^5 CFU mL^−1) were added to a 96-well plate (30096, surface treatment; SPL Life Sciences) and incubated for 24 h at 37°C. The supernatant was removed and fixed with 100% methanol. Next, 100 μL of crystal violet was added to the plate and incubated to dye the cells for 1 h, followed by rinsing the cells three times with distilled water (dH2O). After the crystal violet was dissolved with 95% ethanol, the mass of biofilm formation at 595 nm was measured using a Versa Max microplate reader (Molecular Devices). The inhibitory effect of PN5 against biofilm formed by E. coli 25922, S. aureus 25923, and three MDR E. coli strains (ASEC 2, 16, and 18) were determined. These cells were cultured overnight in LB and TSB media. Bacterial suspensions (5 × 10^5 CFU mL^−1) containing 0.2% glucose were added to 96-well plates and PN5 was serially diluted to a final concentration of 32 μM. The minimal biofilm inhibitory concentration (MBIC) was determined in three independent experiments. The percentage of biofilm formation was measured using the equation (A595 of treated biofilm/A595 of untreated biofilm) × 100. Similarly, the MDR ASEC 1 to 19 strains were cultured overnight in LB medium and seeded into 96-well plates with medium containing 0.2% glucose at 5 × 10^5 CFU mL^−1 of the bacterial suspension. Biofilm staining was performed as described above. SYTO 9 (6 μM) fluorescence in LIVE/DEAD BacLight was used to visualize the degree of biofilm formation. […] After 24 h, the culture supernatant of the peptide and bacteria was discarded, and the pellet was fixed with 100% methanol. A fluorescence mixture of SYTO 9 and propidium iodide was then added to each well, and the fluorescence was evaluated with an EVOS FL color imaging system (Thermo Fisher Scientific) with a 4× objective ([22]).

[3] = biological target: T1, elastase (Homo sapiens, UniProt P08246); test: Resistance to proteolytic degradation, RP-HPLC; format: in vitro ADME; conditions: 50 μg PN5, 10 μg mL^−1 elastase, 0.1 M Tris-HCl pH 8.0, 37°C, 0 to 540 min; RP-HPLC C18, 214 nm
T1 construct: purchased Sigma-Aldrich 324681
Protocol: The stability of PN5 in the presence of the enzyme was measured by treatment with elastase. First, 10 μg mL^−1 elastase in 0.1 M Tris-HCl (pH 8.0) was incubated with 50 μg PN5 at 37°C with shaking (180 rpm), with aliquots collected at 0, 30, 60, 120, 360, 540, and 720 min. After incubation, each sample was observed by RP-HPLC with a Jupiter C18 column (4.6 by 250 mm, 300 Å, 5 μm). E. coli 25922 and S. aureus 25923 were cultured in LB and TSB media with shaking (180 rpm) at 37°C, washed twice with 10 mM sodium phosphate buffer (pH 7.4), suspended in 10 mL LB and TSB media at 2 × 10^5 CFU mL^−1, mixed with 0.2% agarose, and dried for 1 h. Paper disks (6 mm) were placed on the dried agarose, and 50 μg PN5 aliquots was dropped onto the disks. The disks were stored in a 37°C incubator for 24 h. PN5- and elastase (10 μg mL^−1)-treated PN5 was prepared to evaluate the susceptibility to E. coli 25922 and S. aureus 25923. PN5 (6.25, 12.5, 25, 50, and 100 μg) was diluted in 10 mM sodium phosphate buffer (pH 7.4) and 10 μg mL^−1 elastase. E. coli 25922 and S. aureus 25923 were prepared at 2 × 10^5 CFU mL^−1. Peptides with 10 μg mL^−1 elastase and bacteria were incubated for 9 h with shaking (180 rpm) and observed using a visible spectrophotometer (Pharmacia Biotech, Uppsala, Sweden) ([60]).

[4] = system: RAW 264.7 cells; test: IncuCyte Cytotox green time-dependent cytotoxicity; format: cell-based, mouse; conditions: 200 μM, 24 h
Protocol: An IncuCyte cytotoxicity assay (Essen BioScience, Inc., Ann Arbor, MI, USA) was performed to evaluate time-dependent cytotoxicity. RAW 264.7 cells (2 × 10^5 cells well^−1) were seeded into 96-well culture plates and then treated with peptides and IncuCyte Cytotox green reagent (Essen BioScience, Inc.). Up to 200 μM PN5 and 25 μM melittin were used to treat RAW 264.7 cells, with the concentrations serially diluted by half. […] The cells were stained with IncuCyte Cytotox green reagent. The viability was measured using IncuCyte software (Essen BioScience, Inc.) ([56]).

[5] = system: S. aureus ATCC 25923; format: cell-based, Staphylococcus aureus; conditions: microdilution, TSB, 18 to 24 h, 37°C, three independent experiments
Protocol: as §1

T1 sequence (P08246 30-267): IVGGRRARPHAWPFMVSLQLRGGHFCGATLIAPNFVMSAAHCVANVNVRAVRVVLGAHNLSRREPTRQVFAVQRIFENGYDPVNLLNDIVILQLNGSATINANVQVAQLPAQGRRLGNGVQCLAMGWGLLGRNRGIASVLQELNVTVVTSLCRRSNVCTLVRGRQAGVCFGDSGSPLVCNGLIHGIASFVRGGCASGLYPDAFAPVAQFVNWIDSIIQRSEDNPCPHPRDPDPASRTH

Question: FKFLARTGKFL-NH2 [PN5] was tested. Which MIC [1] did it give?
Answer: 16 µM

Question: And the “MBIC50 (minimum inhibitory concentration resulting in at least 50% inhibition of biofilm formation)” value [2]?
Answer: 16 (21.22) μM

Question: And the “peak of residual peptide after incubation with elastase” value [3]?
Answer: remained even after 9 h

Question: And the “cytotoxicity, Cytotox green fluorescence” value [4]?
Answer: no toxicity

Question: What about the MIC [5] of the same substance?
Answer: 2 µM
